Data set [1] concerns the target T1, TRPV2 (Rattus norvegicus, UniProt Q9WUD2, M607I).
T1 construct: rat TRPV2 expressed in HEK293T cells
T1 sequence (Q9WUD2 1-761 M607I): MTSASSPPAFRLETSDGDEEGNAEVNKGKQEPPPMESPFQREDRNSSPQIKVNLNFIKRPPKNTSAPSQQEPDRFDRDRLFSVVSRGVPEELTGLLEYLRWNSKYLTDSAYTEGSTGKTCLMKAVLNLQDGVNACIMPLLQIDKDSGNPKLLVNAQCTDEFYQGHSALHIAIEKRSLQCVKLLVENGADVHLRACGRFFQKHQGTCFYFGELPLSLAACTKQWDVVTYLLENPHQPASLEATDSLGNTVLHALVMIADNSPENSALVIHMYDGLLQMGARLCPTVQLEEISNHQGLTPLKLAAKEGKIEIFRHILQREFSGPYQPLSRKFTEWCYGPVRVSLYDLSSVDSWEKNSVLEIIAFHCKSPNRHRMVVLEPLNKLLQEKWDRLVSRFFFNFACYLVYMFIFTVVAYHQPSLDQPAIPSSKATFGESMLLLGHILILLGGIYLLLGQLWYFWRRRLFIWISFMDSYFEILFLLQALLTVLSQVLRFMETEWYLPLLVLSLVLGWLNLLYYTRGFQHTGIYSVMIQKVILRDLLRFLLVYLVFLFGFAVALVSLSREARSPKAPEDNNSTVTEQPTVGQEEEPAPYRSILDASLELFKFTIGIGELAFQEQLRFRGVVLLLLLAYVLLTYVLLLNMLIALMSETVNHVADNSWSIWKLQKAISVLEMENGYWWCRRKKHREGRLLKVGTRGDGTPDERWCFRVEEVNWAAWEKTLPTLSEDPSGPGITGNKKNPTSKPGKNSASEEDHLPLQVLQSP
Briefly: whole-cell patch clamp, inhibition of 2-APB-induced currents. It counts as cell-based. For orientation: The patch-clamp technique gives a direct electrical read-out from membranes.

Data set [2] deals with T2, TRPV5 (Oryctolagus cuniculus, UniProt Q9XSM3).
T2 construct: wild-type rabbit TRPV5, C-terminal 1D4 tag, in nanodiscs
T2 sequence (Q9XSM3 1-730): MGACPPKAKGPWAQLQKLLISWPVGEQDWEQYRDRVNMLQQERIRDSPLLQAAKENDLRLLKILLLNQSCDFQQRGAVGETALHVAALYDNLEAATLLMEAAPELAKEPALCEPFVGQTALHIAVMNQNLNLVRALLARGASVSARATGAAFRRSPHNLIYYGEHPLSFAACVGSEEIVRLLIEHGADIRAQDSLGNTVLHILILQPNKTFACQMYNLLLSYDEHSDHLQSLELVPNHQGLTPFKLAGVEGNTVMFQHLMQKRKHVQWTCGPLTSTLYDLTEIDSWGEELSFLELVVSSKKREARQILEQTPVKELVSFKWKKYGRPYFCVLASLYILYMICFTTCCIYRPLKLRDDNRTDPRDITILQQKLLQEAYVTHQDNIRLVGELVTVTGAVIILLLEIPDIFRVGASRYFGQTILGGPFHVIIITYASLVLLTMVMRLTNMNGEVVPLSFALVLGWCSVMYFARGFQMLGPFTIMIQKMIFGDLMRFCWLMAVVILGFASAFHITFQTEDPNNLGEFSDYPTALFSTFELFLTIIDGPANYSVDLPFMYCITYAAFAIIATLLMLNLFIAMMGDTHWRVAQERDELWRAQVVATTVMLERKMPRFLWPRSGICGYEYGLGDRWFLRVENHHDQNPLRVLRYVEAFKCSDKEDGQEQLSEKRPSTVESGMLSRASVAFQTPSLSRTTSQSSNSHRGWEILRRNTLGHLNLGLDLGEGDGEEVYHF
The data set can be described thus: cryo-EM structures (8FFQ with PI([…])P2 added, […] Å; 8FFN without, […] Å); IC50 from whole-cell patch clamp in HEK293 cells. Format: cell-based.

In data set [3] the target is T3, TRPV2 (Rattus norvegicus, UniProt Q9WUD2).
T3 construct: wild-type rat TRPV2, C-terminal 1D4 tag, in nanodiscs
T3 sequence (Q9WUD2 1-761): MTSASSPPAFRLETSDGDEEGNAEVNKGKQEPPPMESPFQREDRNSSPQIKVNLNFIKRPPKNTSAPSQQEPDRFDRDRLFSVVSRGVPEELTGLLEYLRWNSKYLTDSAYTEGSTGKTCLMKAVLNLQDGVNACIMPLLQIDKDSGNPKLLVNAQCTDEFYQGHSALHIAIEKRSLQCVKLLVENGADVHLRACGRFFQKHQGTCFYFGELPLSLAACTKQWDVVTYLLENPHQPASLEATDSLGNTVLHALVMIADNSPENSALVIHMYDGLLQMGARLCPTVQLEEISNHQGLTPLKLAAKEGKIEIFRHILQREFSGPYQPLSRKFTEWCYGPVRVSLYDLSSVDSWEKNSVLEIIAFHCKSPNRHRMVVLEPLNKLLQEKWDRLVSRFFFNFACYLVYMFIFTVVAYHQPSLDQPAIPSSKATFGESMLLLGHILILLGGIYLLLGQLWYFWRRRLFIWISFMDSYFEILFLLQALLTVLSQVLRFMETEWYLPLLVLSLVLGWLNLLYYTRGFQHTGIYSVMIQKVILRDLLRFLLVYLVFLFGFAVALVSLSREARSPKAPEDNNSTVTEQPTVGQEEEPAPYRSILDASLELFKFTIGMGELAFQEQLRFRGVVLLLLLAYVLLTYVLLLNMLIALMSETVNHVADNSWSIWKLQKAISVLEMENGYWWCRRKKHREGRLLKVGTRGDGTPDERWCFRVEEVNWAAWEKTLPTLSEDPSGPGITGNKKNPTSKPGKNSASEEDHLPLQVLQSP
Briefly: cryo-EM structure ([…] Å, with 2-APB); IC50 from whole-cell patch clamp in HEK293T cells. Format: cell-based.

Data set [4] deals with T4, TRPV2 (Rattus norvegicus, UniProt Q9WUD2, E609Q).
T4 construct: rat TRPV2 expressed in HEK293T cells
T4 sequence (Q9WUD2 1-761 E609Q): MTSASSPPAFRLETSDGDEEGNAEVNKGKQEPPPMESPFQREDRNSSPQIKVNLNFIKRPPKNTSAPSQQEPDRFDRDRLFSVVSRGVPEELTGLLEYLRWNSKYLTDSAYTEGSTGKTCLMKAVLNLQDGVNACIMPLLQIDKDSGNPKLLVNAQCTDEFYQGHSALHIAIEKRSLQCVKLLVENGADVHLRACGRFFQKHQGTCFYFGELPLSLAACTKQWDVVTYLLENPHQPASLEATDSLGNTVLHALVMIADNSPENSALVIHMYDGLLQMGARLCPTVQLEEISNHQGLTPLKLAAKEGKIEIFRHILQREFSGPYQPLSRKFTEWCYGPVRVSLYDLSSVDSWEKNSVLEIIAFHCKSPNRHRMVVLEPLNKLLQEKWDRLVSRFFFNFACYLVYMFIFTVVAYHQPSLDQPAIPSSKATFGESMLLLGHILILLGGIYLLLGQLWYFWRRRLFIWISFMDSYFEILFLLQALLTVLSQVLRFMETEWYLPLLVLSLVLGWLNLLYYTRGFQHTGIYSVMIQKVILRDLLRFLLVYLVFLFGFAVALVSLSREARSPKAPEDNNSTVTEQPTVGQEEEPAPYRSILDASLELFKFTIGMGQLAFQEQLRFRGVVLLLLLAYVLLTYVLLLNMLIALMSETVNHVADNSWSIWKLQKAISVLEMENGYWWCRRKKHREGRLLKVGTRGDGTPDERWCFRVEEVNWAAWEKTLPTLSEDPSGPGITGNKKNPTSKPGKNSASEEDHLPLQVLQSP
The data set can be described thus: whole-cell patch clamp, inhibition of 2-APB-induced currents. Format: cell-based.

Data set [5] concerns the target T5, TRPV5 (Oryctolagus cuniculus, UniProt Q9XSM3, T539A).
T5 construct: rabbit TRPV5 expressed in HEK293T cells
T5 sequence (Q9XSM3 1-730 T539A): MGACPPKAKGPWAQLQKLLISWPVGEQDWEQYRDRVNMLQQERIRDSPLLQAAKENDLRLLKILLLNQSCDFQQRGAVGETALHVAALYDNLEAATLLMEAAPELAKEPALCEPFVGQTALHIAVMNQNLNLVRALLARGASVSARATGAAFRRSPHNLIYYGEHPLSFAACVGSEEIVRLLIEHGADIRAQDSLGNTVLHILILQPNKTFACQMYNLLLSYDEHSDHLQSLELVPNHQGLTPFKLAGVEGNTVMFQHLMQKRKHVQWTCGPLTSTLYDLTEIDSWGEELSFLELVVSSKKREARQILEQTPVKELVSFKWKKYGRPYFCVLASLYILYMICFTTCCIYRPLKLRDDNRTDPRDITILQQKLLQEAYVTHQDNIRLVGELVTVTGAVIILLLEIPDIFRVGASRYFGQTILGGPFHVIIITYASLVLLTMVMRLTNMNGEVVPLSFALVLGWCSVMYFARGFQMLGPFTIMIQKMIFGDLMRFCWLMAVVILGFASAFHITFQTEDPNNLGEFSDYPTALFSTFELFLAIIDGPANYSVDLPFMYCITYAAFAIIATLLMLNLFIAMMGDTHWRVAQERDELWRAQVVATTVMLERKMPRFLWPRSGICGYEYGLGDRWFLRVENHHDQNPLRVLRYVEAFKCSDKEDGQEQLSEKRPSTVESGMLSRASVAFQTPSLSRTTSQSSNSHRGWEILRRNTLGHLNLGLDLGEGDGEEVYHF
The data set can be described thus: whole-cell patch clamp, % inhibition at […] RR ([…] at […]). It counts as cell-based.

In data set [6] the target is T3, TRPV2. Briefly: cryo-EM structure ([…] Å, with RR); activates whole-cell currents at […].
Data set [7] deals with the molecule itself. Briefly: cryo-EM structure; channel tetramer in MSP2N2/soy polar lipid nanodiscs, 20 mM Hepes pH 8.0, 150 mM NaCl, 2 mM TCEP; with 1 mM ruthenium red, with or without activator (1 mM 2-APB for TRPV2; 400 uM diC8-PI(4,5)P2 for TRPV5).

Turning to `N.N.N.N.N.N.N.N.N.N.N.N.N.N.[Cl-].[Cl-].[Cl-].[Cl-].[Cl-].[Cl-].[O-2].[O-2].[Ru+3].[Ru+3].[Ru+4]` [RR, ruthenium red], the concentration for half-maximal inhibition (IC50) (as a rule, the point on the concentration scale where inhibition reaches its midpoint) against TRPV2 [1] is 29 ± 5 µM; on TRPV5 [2], 0.0137 ± 0.0044 µM; on TRPV2 [3] it was 0.159 ± 0.047 µM; against TRPV2 [4] it was 149 ± 111 µM. Also, the “% inhibition at 10 μM” value on TRPV5 [5] is 94.5 ± 1.5.

As to `NCCOB(c1ccccc1)c1ccccc1` [2-APB, 2-aminoethoxydiphenyl borate], the cryo-EM structural observation result on TRPV2 [6] was “clear three-lobed density for 2-APB coordinated by His521 and Arg539”.

B1: wild-type rabbit TRPV5 (natural protein)
chain: MGACPPKAKGPWAQLQKLLISWPVGEQDWEQYRDRVNMLQQERIRDSPLLQAAKENDLRLLKILLLNQSCDFQQRGAVGETALHVAALYDNLEAATLLMEAAPELAKEPALCEPFVGQTALHIAVMNQNLNLVRALLARGASVSARATGAAFRRSPHNLIYYGEHPLSFAACVGSEEIVRLLIEHGADIRAQDSLGNTVLHILILQPNKTFACQMYNLLLSYDEHSDHLQSLELVPNHQGLTPFKLAGVEGNTVMFQHLMQKRKHVQWTCGPLTSTLYDLTEIDSWGEELSFLELVVSSKKREARQILEQTPVKELVSFKWKKYGRPYFCVLASLYILYMICFTTCCIYRPLKLRDDNRTDPRDITILQQKLLQEAYVTHQDNIRLVGELVTVTGAVIILLLEIPDIFRVGASRYFGQTILGGPFHVIIITYASLVLLTMVMRLTNMNGEVVPLSFALVLGWCSVMYFARGFQMLGPFTIMIQKMIFGDLMRFCWLMAVVILGFASAFHITFQTEDPNNLGEFSDYPTALFSTFELFLTIIDGPANYSVDLPFMYCITYAAFAIIATLLMLNLFIAMMGDTHWRVAQERDELWRAQVVATTVMLERKMPRFLWPRSGICGYEYGLGDRWFLRVENHHDQNPLRVLRYVEAFKCSDKEDGQEQLSEKRPSTVESGMLSRASVAFQTPSLSRTTSQSSNSHRGWEILRRNTLGHLNLGLDLGEGDGEEVYHF
notes: Transient receptor potential vanilloid 5 (TRPV5), rabbit, wild type; Homotetramer ('TRPV tetramer', C4 symmetry); No step that removes the 1D4 tag is described; also called rbTRPV5; TRPV5RR; source: S. cerevisiae BJ5457, purified (1D4 antibody beads, eluted with 1D4 peptide; reconstituted into MSP2N2 nanodiscs; SEC)
Consider B1, for which, in data set [7], the binding result was “binds”.

The record behind these values is article PMC10897480, “Molecular details of ruthenium red pore block in TRPV channels” (EMBO Reports, 2024).
